The target in assay [1] is T1, human HDAC4 (Homo sapiens, UniProt P56524).
T1 construct: made in house; host or cells: 293T cells (transient transfection, anti-FLAG immunoprecipitation, FLAG peptide elution)
As to the kind of experiment: HDAC-inhibiting activity, coumarin-labeled acetylated histone peptide assay. Conditions: human HDAC4 from transfected 293T cells; 37° C., 30 minutes; read-out: HDAC-inhibiting activity IC50 HDAC4. The class given is biochemical.

Assay [2] concerns brain tumor cell line SF-295. As to the kind of experiment: Human cancer cell line panel, proliferation (sulforhodamine B). It is filed as cell-based. Conditions: SF-295, 2 days of cultivation; read-out: 50% inhibitory concentration, proliferation. From the text:
(§1) The characteristics of the human cancer cell proliferation-inhibiting activity of the compounds of the present invention were examined by the “method of evaluating the mechanisms of action of compounds using a panel of human cancer cell lines” as proposed by Yamori et al. (cf. Gan to Kagaku Ryoho (Cancer and Chemotherapy) 29 Suppl. II (2002) and Cancer Chemother. Pharmacol. 52 Suppl. I, S74-79 (2003)).
(§2) This system includes […] (7 lung cancer, 6 stomach cancer, 5 colon cancer, 5 ovarian cancer, 6 brain tumor, […], 2 kidney cancer and 2 prostate cancer cell lines as well as one melanoma line) and the method comprises measuring the in vitro drug susceptibilities of those cancer cell lines and expressing the differences in drug susceptibility among the respective cancer cell lines as a fingerprint. […] By utilizing this property, it is possible to estimate the mechanisms of action of a compound. The above method is also characterized in that an anticancer substance showing new and unique mechanisms of action different from those of the existing anticancer agents can be selected.
(§3) Cancer cells of each cell line are sowed onto a 96-well plate, a sample solution is added on the next day and, after 2 days of cultivation, the cell proliferation is measured by colorimetry using sulforhodamine B. The deviations in effective concentration for the respective cancer cell lines from the mean effective drug concentration for the 39 cancer cell lines subjected to measurement are calculated and shown in the form a fingerprint.

Assay [3] relates to brain tumor cell line SF-268. Described as above. Conditions: SF-268, 2 days of cultivation; read-out: 50% inhibitory concentration, proliferation. It is filed as cell-based.
From the text: as §1, §2, §3

For assay [4], the system named is ovarian cancer cell line SK-OV-3. The description is as above. The class given is cell-based. The following applies: SK-OV-3, 2 days of cultivation; read-out: 50% inhibitory concentration, proliferation.
From the text: as §1, §2, §3

In assay [5] the test system is colon cancer cell line KM-12. The assay is described as above. It is filed as cell-based. The following applies: KM-12, 2 days of cultivation; read-out: 50% inhibitory concentration, proliferation.
From the text: as §1, §2, §3

The test system of assay [6] is kidney cancer cell line ACHN. The assay is described as above. The class given is cell-based. The following applies: 2 days of cultivation, read-out: 50% inhibitory concentration, proliferation.
From the text: as §1, §2, §3

SMILES strings stand for the structures.

T1 sequence (P56524 whole entry): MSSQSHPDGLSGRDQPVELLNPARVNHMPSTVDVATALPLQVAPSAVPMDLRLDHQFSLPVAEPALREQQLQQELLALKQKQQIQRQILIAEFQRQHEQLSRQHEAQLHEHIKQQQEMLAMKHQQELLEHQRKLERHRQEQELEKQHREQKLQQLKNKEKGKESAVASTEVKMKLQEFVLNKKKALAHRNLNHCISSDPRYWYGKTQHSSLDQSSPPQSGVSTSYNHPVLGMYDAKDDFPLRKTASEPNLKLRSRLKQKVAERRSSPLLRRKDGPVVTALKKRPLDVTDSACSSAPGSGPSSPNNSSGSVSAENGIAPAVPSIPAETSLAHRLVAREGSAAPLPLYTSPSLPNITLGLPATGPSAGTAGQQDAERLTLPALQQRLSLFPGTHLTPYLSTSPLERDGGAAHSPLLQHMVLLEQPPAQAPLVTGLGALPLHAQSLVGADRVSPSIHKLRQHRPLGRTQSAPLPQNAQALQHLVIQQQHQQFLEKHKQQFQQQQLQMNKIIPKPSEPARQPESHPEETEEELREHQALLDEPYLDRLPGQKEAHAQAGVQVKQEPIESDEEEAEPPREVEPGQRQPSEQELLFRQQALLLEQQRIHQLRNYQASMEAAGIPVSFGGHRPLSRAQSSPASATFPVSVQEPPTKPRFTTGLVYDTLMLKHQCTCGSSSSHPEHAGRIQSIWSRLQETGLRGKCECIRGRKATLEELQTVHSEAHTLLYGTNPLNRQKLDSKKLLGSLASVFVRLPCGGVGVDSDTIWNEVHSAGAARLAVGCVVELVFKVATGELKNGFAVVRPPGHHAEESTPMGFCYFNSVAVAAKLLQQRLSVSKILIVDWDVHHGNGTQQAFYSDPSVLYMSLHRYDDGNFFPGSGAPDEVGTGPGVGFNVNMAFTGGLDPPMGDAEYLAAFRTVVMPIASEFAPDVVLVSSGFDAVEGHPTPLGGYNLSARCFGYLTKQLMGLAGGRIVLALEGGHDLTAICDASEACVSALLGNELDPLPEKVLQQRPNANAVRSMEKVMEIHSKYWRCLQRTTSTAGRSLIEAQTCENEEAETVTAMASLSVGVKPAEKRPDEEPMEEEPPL
T1 sequence (O15379 whole entry, further chain): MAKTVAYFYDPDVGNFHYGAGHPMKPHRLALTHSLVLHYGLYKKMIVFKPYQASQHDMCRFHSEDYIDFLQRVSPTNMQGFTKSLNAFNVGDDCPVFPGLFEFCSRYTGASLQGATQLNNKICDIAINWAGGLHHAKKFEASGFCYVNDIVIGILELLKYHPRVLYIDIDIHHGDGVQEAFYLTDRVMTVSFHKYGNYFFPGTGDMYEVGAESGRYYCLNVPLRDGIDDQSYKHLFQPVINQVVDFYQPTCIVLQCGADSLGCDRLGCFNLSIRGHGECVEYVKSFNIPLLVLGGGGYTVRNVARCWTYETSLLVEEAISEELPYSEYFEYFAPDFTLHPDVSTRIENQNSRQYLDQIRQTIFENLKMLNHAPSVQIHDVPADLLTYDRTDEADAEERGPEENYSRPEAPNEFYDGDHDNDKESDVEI

`CC1(C)NC(=O)[C@H](CCCCCSCc2ccncc2)NC(=O)[C@H]2CCCN2C(=O)[C@H](Cc2ccccc2)NC1=O` [Ky-26, cyclo(-L-Am7(4-pyridylmethyl)-Aib-L-Phe-D-Pro-)]: the IC50 in assay [1] worked out at 25 nM.

Regarding `CC(=O)CSCCCCC[C@@H]1NC(=O)[C@H]2CCCN2C(=O)[C@H](Cc2ccccc2)NC(=O)C(C)(C)NC1=O` [Ky-72, cyclo(-L-Am7(acetonyl)-Aib-L-Phe-D-Pro-)], the IC50 is 1600 nM in assay [1]; no more than 100 nM in assay [2]; no more than 100 nM in assay [3]; no more than 100 nM in assay [4]; no more than 100 nM in assay [5]; no more than 100 nM in assay [6].
